Reference: BindingDB's records for doi:10.1021/jm960697s (Pfizer, 1997)

How the values were obtained:
[1] = biological target: T1, 3-oxo-5-alpha-steroid 4-dehydrogenase 1 (Homo sapiens, UniProt P18405); assay: Binding affinity for human 5 alpha reductase 1 isozyme
T1 sequence (P18405 whole entry): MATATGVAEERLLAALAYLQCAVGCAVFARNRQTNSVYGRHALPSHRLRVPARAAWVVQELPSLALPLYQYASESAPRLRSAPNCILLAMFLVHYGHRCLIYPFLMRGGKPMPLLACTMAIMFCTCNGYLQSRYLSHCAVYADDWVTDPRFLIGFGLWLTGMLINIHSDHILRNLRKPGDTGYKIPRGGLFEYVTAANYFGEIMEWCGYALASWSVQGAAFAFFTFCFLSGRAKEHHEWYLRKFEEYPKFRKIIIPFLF

[2] = biological target: Alpha-1B adrenergic receptor (Mesocricetus auratus) (UniProt P18841); assay: Binding affinity was tested on cloned hamster Alpha-1B adrenergic receptor
Chain of Alpha-1B adrenergic receptor (Mesocricetus auratus) (P18841 whole entry, looked up): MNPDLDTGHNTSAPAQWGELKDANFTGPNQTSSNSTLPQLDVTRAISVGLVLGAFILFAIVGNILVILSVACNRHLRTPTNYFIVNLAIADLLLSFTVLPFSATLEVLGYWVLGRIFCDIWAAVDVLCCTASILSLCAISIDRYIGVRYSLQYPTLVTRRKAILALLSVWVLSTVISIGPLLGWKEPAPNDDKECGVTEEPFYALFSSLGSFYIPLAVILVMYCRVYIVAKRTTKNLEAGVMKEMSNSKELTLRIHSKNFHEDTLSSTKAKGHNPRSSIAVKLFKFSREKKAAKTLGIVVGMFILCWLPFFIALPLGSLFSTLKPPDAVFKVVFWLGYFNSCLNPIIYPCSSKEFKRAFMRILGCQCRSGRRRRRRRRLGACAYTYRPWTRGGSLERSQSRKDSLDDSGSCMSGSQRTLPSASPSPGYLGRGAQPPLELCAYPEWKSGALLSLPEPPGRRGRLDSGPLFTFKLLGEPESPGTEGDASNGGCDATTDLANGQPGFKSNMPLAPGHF

| Ki [1] | IC50 [2] | SMILES |
| --- | --- | --- |
| 0.2 nM | – | CC1C(=O)CC[C@@]2(C)C1=NCC1C2CC[C@@]2(C)C1CC[C@@H]2C(=O)Nc1cc(C(F)(F)F)ccc1C(F)(F)F (stereo partly drawn) [(1S,9aR,11aS)-6,9a,11a-Trimethyl-7-oxo-2,3,3a,3b,4,5,7,8,9,9a,9b,10,11,11a-tetradecahydro-1H-cyclopenta[i]phenanthridine-1-carboxylic acid (2,5-bis-trifluoromethyl-phenyl)-amide] |
| – | 206 nM | COc1ccc(CC2c3cc(OC)c(OC)cc3CCN2c2nc(N)c3cc(OC)c(OC)cc3n2)cc1OC (stereo not drawn) [2-[1-(3,4-Dimethoxy-benzyl)-6,7-dimethoxy-3,4-dihydro-1H-isoquinolin-2-yl]-6,7-dimethoxy-quinazolin-4-ylamine] |
| 0.2 nM | – | C[C@]12CCC(=O)C(Cl)C1=NCC1C2CC[C@@]2(C)C1CC[C@@H]2C(=O)Nc1cc(C(F)(F)F)ccc1C(F)(F)F (stereo partly drawn) [(1S,9aR,11aS)-6-Chloro-9a,11a-dimethyl-7-oxo-2,3,3a,3b,4,5,7,8,9,9a,9b,10,11,11a-tetradecahydro-1H-cyclopenta[i]phenanthridine-1-carboxylic acid (2,5-bis-trifluoromethyl-phenyl)-amide] |
